Format in all cases: cell-based, human
Test [1] concerns hES cells. As to the kind of experiment: ELISA-based GCTM-2 quantification in hES cells (Example 2). The protocol: (§1) hES-3 cells were cultured as previously described^1. The serum-free culture medium consisted of DMEM (without sodium pyruvate, glucose 4500 mg/l, Invitrogen, Mount Waverley, VIC, Australia) supplemented with insulin/transferrin/selenium 1%, β-mercaptoethanol 0.1 mM, NEAA 1%, glutamine 2 mM, Hepes 25 mM, penicillin 50 U/ml and streptomycin […] (all from Invitrogen). Media was changed every 2 days and cells were passaged every week S1P and dihydro-S1P were obtained from Biomol (Plymouth Meeting, Pa., USA). LPA was obtained from Sigma (Castle Hill, NSW, Australia). Extemporaneous dilutions of all lipids were made in water containing 0.1% fatty acid-free bovine serum albumin (BSA) (Sigma). S1P and dihydro-S1P were used at 10 mM. Human PDGF-AB, PDGF-AA, PDGF-BB were from Prepro Tech Inc. (Rocky Hill, N.J., USA) and were used at 20 ng/ml.
Cells were fixed in 100% ethanol and immunostained with GCTM-2 followed by alkaline phosphatase-coupled secondary antibodies (Dako). Alkaline phosphatase activity was detected by adding a solution of 4-nitrophenyl phosphate (Roche), and the concentration of the reaction product was determined by reading the optical density (OD) at 405 nm. In order to validate the technique as an accurate indicator of the proportion of GCTM-2 positive cells, standard curves were carried out with the embryonal carcinoma cell line GCT27C4, known to express GCTM-2^20.

For test [2], the system named is ERKs (Erk1 and Erk2) in hES cells. As to the kind of experiment: ERK phosphorylation Western blot in hES cells (Example 1). On the procedure: RT-PCR for LPL receptors (A, B), PDGFR-[…] (alpha) and PDGFR-[…] (beta) (C), SPK-1 and SPK-2 (D), with (+) or without (−) RT. Immunostaining of hES cells with Hoechst 33342 (E, H), PDGFR-[…] (F) or PDGFR-[…] (I) and GCTM-2 (G, J) antibodies. S1P, LPA and PDGF stimulate ERKs phosphorylation in hES cells. (K) Western blots experiment were performed using protein lysate from hES cells. Cells were pre-treated or not with U0126 (30 μM, 1 hr) and incubated for 5 min in the absence (C, control) or presence of S1P (S, 10 μM), LPA (L, […]) or PDGF (P, 20 ng/ml). The phosphorylation of Erk1 and Erk2 (P-Erk1 and P-Erk2) was assessed by immunoblotting with a polyclonal anti-active MAP kinase as described in Materials and Methods. After a stripping procedure, the same blots were reprobed with a monoclonal anti-MAP kinase, allowed the detection of Erk1 and Erk2.
hES-3 cells plated without MEF for 24 hrs were depleted of serum for a further 18 hrs. Cells pre-treated or not with U0126 (Sigma, 30 μM, 1 hr), were incubated in the presence of the different agents for 5 min and were lysed by removal of the supernatants and addition of a reducing loading buffer containing 1 mM sodium orthovanadate (Sigma). Protein lysates (approx. 80 μg) were separated by SDS-polyacrylamide gel electrophoresis (10% polyacrylamide, w/v), transferred to nitrocellulose (Hybond-nitrocellulose, Amersham) and immunoblotting was carried out using rabbit polyclonal anti-active mitogen-activated protein (MAPK) antibodies raised against a dually phosphorylated MAPK peptide (Promega, Madison, Wis., USA). Peroxidase-coupled secondary antibody (Dako) was detected by exposure of autoradiographic films in the presence of a chemiluminescent detection reagent (ECL, Amersham). Stripping of antibodies was achieved and membranes were then reprobed with rabbit polyclonal anti-ERK1/2 antibodies (Promega), and then with peroxidase-coupled secondary antibodies (Dako). Membranes probed with either rabbit polyclonal anti-active p38 (Promega) or rabbit polyclonal anti-active JNK (Promega) antibodies were also performed, using the same procedure as described above.

For test [3] the test system is unchanged. As to the kind of experiment: ERK phosphorylation Western blot in hES cells (Example 5). To be noted: U0126 30 μM, 1 hr pre-treatment. The protocol: Western blots experiments were performed using protein lysate from hES cells. (A) Cells were pre-treated or not with U0126 (30 μM, 1 hr) and incubated for 5 min in the absence (C, control) or presence of S1P (10 μM). (B) Cells were incubated for different time periods in the absence or presence of S1P (10 μM). (C) Cells were incubated for 5 min with various concentrations of S1P. The phosphorylation of Erk1 and Erk2 (P-Erk1 and P-Erk2) was assessed by immunoblotting with a polyclonal anti-active MAP kinase as described in Materials and Methods. After a stripping procedure, the same blots reprobed with a monoclonal anti-MAP kinase, allowed the detection of Erk1 and Erk2.
For immunoblot analysis, cells were transferred into 24 well plates (8 colonies per well) without MEFs, and 24 hr later, were grown in the absence of serum for 18 hrs.
In some experiments, cells were pre-treated for 1 hr with U0126 (30 μM) or for 18 hrs with PTX (100 μg/ml).
hES3 cells were lysed following removal of the supernatants by addition of a reducing loading buffer (2% SDS, 62.5 mM Tris pH 6.8, 0.1 M DTT, 0.01% bromophenol blue) containing 1 mM sodium orthovanadate. Samples were boiled for 10 min and centrifuged at 13000 g for 15 min, and protein lysates (approx. 80 μg) were separated by SDS-polyacrylamide gel electrophoresis (10% polyacrylamide, w/v). Proteins were transferred to nitrocellulose (Hybond-ECL, Amersham) and immunoblotting was carried out with rabbit polyclonal anti-active mitogen-activated protein (MAPK) antibodies raised against a dually phosphorylated MAPK peptide (Promega, Madison, Wis., USA). Peroxidase-coupled secondary antibody (Dako) was detected by exposure of autoradiographic films in the presence of a chemiluminescent detection reagent (ECL, Amersham). Stripping of antibodies was achieved by incubating the membrane during 30 min at 50° C. in a buffer containing 100 mM mercaptoethanol, 2% SDS, 62.5 mM Tris-HCl pH 6.7. The membrane was then reprobing with rabbit polyclonal anti-ERK1/2 antibodies (Promega), and then with peroxidase-coupled secondary antibodies (Dako).

Test [4] concerns hES cells. Description: Spontaneous differentiation of hES colonies on MEF in serum-free medium, morphology (Example 1). To be noted: 8 days serum-free on MEF; S1P 10 μM, PDGF 20 ng/ml, LPA up to 50 μM. The protocol:
(A) hES cells grown with MEF, before the depletion of serum from the medium. (B, C, D, E) hES cells grown without serum after 8 days, in the absence (B) or in the presence of S1P (10 μM) (C), PDGF (20 ng/ml) (D), S1P (10 μM) plus PDGF (20 ng/ml) (E). (F) hES cells grown without serum, in the presence or in the absence (control) of S1P (10 μM), PDGF (20 ng/ml), S1P (10 μM) plus PDGF (20 ng/ml). In A-E, data are representative of at least 3 independent experiments. In F, data expressed as percentages of alkaline phosphatase activity in absence of serum for eight days (% of control), are the means±SEM of at least 2 independent experiments, each run in triplicate.
hES-3 cells were cultured as previously described^1. The serum-free culture medium consisted of DMEM (without sodium pyruvate, glucose 4500 mg/l, Invitrogen, Mount Waverley, VIC, Australia) supplemented with insulin/transferrin/selenium 1%, β-mercaptoethanol 0.1 mM, NEAA 1%, glutamine 2 mM, Hepes 25 mM, penicillin 50 U/ml and streptomycin […] (all from Invitrogen). Medium was changed every 2 days and cells were passaged every week. S1P and dihydro-S1P were obtained from Biomol (Plymouth Meeting, Pa., USA) and were dissolved in methanol. LPA was obtained from Sigma (Castle Hill, NSW, Australia) and was dissolved in ethanol. Extemporaneous dilutions of all lipids were made in water containing 0.1% fatty acid-free bovine serum albumin (BSA) (Sigma). Human PDGF-AB, PDGF-AA, PDGF-BB were from PreproTech Inc. (Rocky Hill, N.J., USA).

Test [5] relates to hES cells. As to the kind of experiment: Spontaneous differentiation of hES colonies on MEF in serum-free medium, morphology (Example 2). The note with it: 2 weeks serum-free on MEF; S1P 10 μM, PDGF-AB 20 ng/ml, LPA up to 50 μM. The protocol:
as §1, with “S1P and dihydro-S1P were used at 10 mM.” left out

Test [6] has as its system hES cells. As to the kind of experiment: Direct observation of hES colonies in serum-depleted medium (Example 4). On the procedure:
(A) hES cells grown with feeder, before the depletion in serum. (B) hES cells grown without serum after 8 days (B, C) and 12 days (D, E), in absence (B, D) or presence of S1P (C, E, 10 μM).
For direct observation, hES-3 cells were coated into 12-well plates (3 colonies per well), with or without mouse embryonic feeders (MEFs). The day following the plating, cells were incubated with the different agents in serum free medium containing insulin, transferring and selenium. Media was changed the 2nd day and then every 2 days.

Entries after “also recorded” stand apart in the source; their conditions may differ.

With `CCCCCCCCCCCCC/C=C/[C@@H](O)[C@H](CO)N(C)C` [DMS, dimethylsphingosine], in the test on hES cells [1] (DMS 3 µM for 7 days), the “effect on PDGF and S1P action (GCTM2)” value is “inhibited the effect of PDGF and S1P”.

On to `N#CC(=C(/N)Sc1ccccc1N)/C(C#N)=C(\N)Sc1ccccc1N` [U0126], for which, in test [2] (U0126 30 μM, 1 hr pre-treatment), the “effect on S1P-, LPA- and PDGF-stimulated phosphorylation of ERKs” value was “totally inhibited”. In addition, the “effect on PDGF and S1P action on GCTM2 expression” value in the test on hES cells [1] (U0126 10 mM for 7 days) was “totally inhibited”. The “effect on S1P-stimulated phosphorylation of ERKs” value in test [3] was “totally inhibited”.

Turning to lysophosphatidic acid [LPA], the “phosphorylation of ERKs” value in test [2] (hES cells, 5 min, S1P 10 μM, LPA 50 M, PDGF 20 ng/ml) is “stimulated the phosphorylation of ERKs”. In addition, the “colony growth/morphology (spontaneous differentiation)” value in the test with hES cells [4] was “did not have an obvious effect on growth of the colonies”. Further, the “size or morphology of hES cell colonies (spontaneous differentiation)” value with hES cells [5] is “no obvious effect on size or morphology”. Also, the “growth/differentiation of hES colonies on MEFs” value in the test with hES cells [6] (S1P 10 μM 8 days, LPA up to 50 μM 12 days) is “did not seem to affect the growth of the colonies; also recorded: inactive”. Moreover, in the test on hES cells [6] (without MEFs, n=3), the “effect on cell differentiation, hES cells grown without MEFs” value was “lack of effect”.

The values above are taken from US7604990B2, “Methods of regulating differentiation in stem cells” (ES Cell International Pte Ltd., priority 2002, dated 2009).
